# Laboratory results from US20120195488A1, “Methods and Compositions Related to Cellular Assays” (University of utah Research Foundation, priority 2009, published 2012).
# What was measured:
# Type in all cases: cell-based
# γH2AX = test: Fraction of γH2AX positive cells in taxol treated MCF7 cells (multi-well immunofluorescence imaging)
# Text: (§1) Many cells (typically >1,000) over a very large field of view were imaged. At least two stainings were used simultaneously. An optional third staining, here propidium iodide (PI), was also used as a nuclear locator.
# (§2) The cells were imaged in 3 channels which corresponded to the three stainings. The third channel was used for cell profiling. In a first data processing step, cells were automatically identified in the images by their signal and/or shape in one or both of the recorded channels. Alternatively, cells were identified using a nuclear counterstain and then the activator(s) were read. […] From the distributions S1(c) and S2(c), characteristic numbers were derived. For example (at the example of channel 1, same valid for channel 2).
# Fraction of positive cells: F1=N1+/N
# (§3) The imaging and analysis procedure were repeated for cells which were fixed at different time points t and under influence of different drug doses dd. For every condition (time point and drug dose), the parameters above were determined.
# (§4) Hela, MCF7, as well as primary cells from a patient were cultured for growth in this assay. Cells were obtained and seeded initially at ˜100 cells per well/96 well plate . The cells were grown in DMEM, with 10% Fetal Falf Serum, ultra pure, along with 5% Pen/Strep. The cells after being plated were placed in an incubator at […]. with 5% CO2 and grown for a period of 28 hours to allow for adhesion and division . If the cell took to the plate and were growing normally they were allowed to continue for an additional 24 hours. […] Here, the experiment first staining for only one marker using a green label so that the read was unpolluted by any other color that could show cross reactivity with the green (as there is RED, PI staining the nucleus already, which has no cross reactivity), once the data was collected and the data satisfied that the independent signal was reproducible, a double staining was performed by adding the second marker and using a orange dye with a wavelength of 555. […]
# p-ATM = test: Average p-ATM signal per cell in taxol treated MCF7 cells
# Text: as §1, §2
# Average signal of all cells: <S1>
# as §3
# as §4, with “hours. Cells were then treated with either Taxol, Doxirubicin, or Ionizing Radiation or a combination of all 3.” for “hours.”
# MCF7 cells = test: Total number of cells N in taxol treated MCF7 cells; settings: for killing of cells (total number of cells): all drug doses (10 nm to 5 um)
# Text: as §1, §2, §3
# Hela, MCF7, as well as primary cells from a patient were cultured for growth in this assay. Cells were obtained and seeded initially at ˜100 cells per well/96 well plate . The cells were grown in DMEM, with 10% Fetal Falf Serum, ultra pure, along with 5% Pen/Strep. The cells after being plated were placed in an incubator at […]. with 5% CO2 and grown for a period of 28 hours to allow for adhesion and division . If the cell took to the plate and were growing normally they were allowed to continue for an additional 24 hours. Cells were then treated with either Taxol, Doxirubicin, or Ionizing Radiation or a combination of all 3. All drugs were added in the logarithmic titrations shown in the data at time point zero. The cells were then collected (fixed with −20 degree methanol for 7 minutes, washed with PBS, washed again and stored in PBS until the entire plate of titrations were finished. After collection, the nucleus of each cell was stained using PI (far RED) by adding PI for 15 minutes and then washing 3× the cells with sterile PBS . Once the nuclei had been stained, each well was stained for either phosphor ATM or gamma H2AX or both using primary antibodies at a dilution of 1:1000 in a PBS/Block mix for 1 hour at 37 degrees. The cell were then washed 3× with PBS and then treated with the appropriate secondary . Here, the experiment first staining for only one marker using a green label so that the read was unpolluted by any other color that could show cross reactivity with the green (as there is RED, PI staining the nucleus already, which has no cross reactivity), once the data was collected and the data satisfied that the independent signal was reproducible, a double staining was performed by adding the second marker and using a orange dye with a wavelength of 555. […]
smiles,measurement,setting,value
CC(=O)O[C@H]1C(=O)[C@@]2(C)[C@H]([C@H](OC(=O)c3ccccc3)[C@]3(O)C[C@H](OC(=O)[C@H](O)[C@@H](NC(=O)c4ccccc4)c4ccccc4)C(C)=C1C3(C)C)[C@]1(OC(C)=O)CO[C@@H]1C[C@@H]2O [Taxol],time point at which γH2AX fluorescence reaches its lowest point,γH2AX; 5 um dose,12 h
same,Emax,"γH2AX; Homo sapiens, all 4 doses 10 nm, 100 nm, 1 um and 5 um, 1 hour pulse, 4 hour post treatment time point, read-out: maximum response, induction rate of γH2AX (fraction of γH2AX positive cells)",~100%
same,effective on a population,γH2AX; highest dose,30%
same,time at which average p-ATM signal per cell is lowest,p-ATM; 5 uM,approximately 4 hours
same,"p-ATM fluorescent signal, initial elevation (maximum)",p-ATM; 5 um dose,~2300 a.u.
same,"p-ATM fluorescent signal, lowest point","p-ATM; 5 um dose, within 4 hours",~1000 a.u.
same,killing of the entire cell population,MCF7 cells; 5 um dose,does not kill the entire population
same,time point at which cell killing was most effective,MCF7 cells; all drug doses,4 h
same,killing of cells (total number of cells),MCF7 cells,all treatments were effective in killing cells
same,killing of cells (total number of cells),MCF7 cells; listed as taxol,kill cells in a titration dependent fashion
